Assay results published in patent publication US20220126077A1, “Treatment for Dry Eyes” (priority 2020, published 2022).

Tested on: lacrimal glands
Assay: Experimentation with balm ingredients applied to the skin adjacent the eyes: tear production
Format: in vivo
Conditions: vapor released over time
Description: The formulation particularly preferred for the balm includes caffeine, in a medically useful amount, which, when applied to the skin adjacent the eyes, promotes blood circulation thereto. Additionally included is menthol in a medically useful amount, which is included to release a vapor over a period of time subsequent to application to the skin.
By adjacent to the eye is meant the skin area on the face which is below the lower eye lid, and between the end of the nose of the user and the outside end of the eye of the user which is closest to the ear on the same side as the eye being treated.
The plurality of active ingredients have been found, in experimentation when employed together, to have a beneficial synergistic effect which is well beyond the effect of the individual ingredients when employed in a balm by themselves. Currently, an active ingredient portion of the total volume of the balm mixture, includes a combination of active ingredients blended and combined to an active ingredient portion of the total balm mixture. This active ingredient portion of the total mixture ranges from 20 to 60 percent of the total volume of the balm mixture. […]

## CC1CCC(C(C)C)C(O)C1 (stereo not shown) [menthol, Menthol]
  production of tears by the lacrimal glands: stimulate the lacrimal glands to produce tears
